According to US12590106B2, “Spiromacrocyclic orexin 2 receptor agonists” (H. Lundbeck A/S, priority 2023, dated 2026):

Biological target: T1, human Ox2R (Homo sapiens, UniProt O43614)
T1 construct: The gene encoding hOx2R was subcloned into the expression plasmid pcDNA5/FRT/TO; expressed in transfected cells; host or cells: CHO Flp-In cells (pcDNA5/FRT/TO with pOG44 Flp recombinase vector, hygromycin B selection)
T1 sequence (O43614 1-444): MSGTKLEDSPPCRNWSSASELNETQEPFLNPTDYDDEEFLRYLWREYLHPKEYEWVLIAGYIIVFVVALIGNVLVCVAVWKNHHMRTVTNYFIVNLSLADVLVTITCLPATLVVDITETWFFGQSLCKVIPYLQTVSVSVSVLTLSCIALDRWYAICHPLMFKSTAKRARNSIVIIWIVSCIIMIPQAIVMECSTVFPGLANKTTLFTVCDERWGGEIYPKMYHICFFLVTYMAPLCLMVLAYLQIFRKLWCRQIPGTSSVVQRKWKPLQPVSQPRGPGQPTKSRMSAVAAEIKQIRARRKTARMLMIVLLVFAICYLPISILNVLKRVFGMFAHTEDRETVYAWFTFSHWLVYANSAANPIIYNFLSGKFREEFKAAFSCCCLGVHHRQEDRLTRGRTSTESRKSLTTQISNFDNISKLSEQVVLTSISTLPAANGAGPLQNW
Experiment: Measurement of OX2R agonist activity (cell-based calcium release assay)
Details: hOx2R-CHO Flp-In cells, n≥2 tests; for EC50: intracellular calcium, read-out: EC50; for Emax: read-out: Emax (%)
Method in brief: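 CHO Flp-In cells stably expressing human Ox2R, dye-loaded 1 h at 37 °C in HBSS/20 mM HEPES pH 7.4 with 2.5 mM probenecid and 10 mM CaCl2, then stimulated with compound.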

[1] = normalized to assay buffer (0%) and 10 μM Danavorexton (100%)

Row | Structure (SMILES) | EC50 | Emax (%) [1] | Emax [1]
1 | C[C@@H]1C[C@@H](NS(C)(=O)=O)C[C@@]12Cc1ccc(F)c(c1)-c1ccccc1OCc1coc2n1 [Example 63, N-[(1′R,4′R,14S)-19-fluoro-4′-methyl-spiro[8,12-dioxa-21-azatetracyclo[14.3.1.110,13.02,7]henicosa-1(19),2,4,6,10,13(21),16(20),17-octaene-14,3′-cyclopentane]-1′-yl]methanesulfonamide or N-[(1′S,4′S,14R)-19-fluoro-4′-methyl-spiro[8,12-dioxa-21-azatetracyclo[14.3.1.110,13.02,7]henicosa-1(19),2,4,6,10,13(21),16(20),17-octaene-14,3′-cyclopentane]-1′-yl]methanesulfonamide] | 1.4 nM | 100% | 
2 | CS(=O)(=O)N[C@H]1CC[C@@]2(CO[C@H]3CC[C@H](CC3)c3ccccc3OCc3noc2n3)C1 [Example 64, N-[(1s,1′S,14R,17s)-spiro[8,12,16-trioxa-11,22-diazatetracyclo[15.2.2.110,13.02,7]docosa-2,4,6,10,13(22)-pentaene-14,3′-cyclopentane]-1′-yl]methanesulfonamide] | 3 nM |  | 100%
3 | CS(=O)(=O)N[C@H]1CC[C@@]2(CO[C@H]3CC[C@H](CC3)c3ccccc3OCc3nc2no3)C1 [Example 65, N-[(1s,1′S,14R,17s)-spiro[8,11,16-trioxa-12,22-diazatetracyclo[15.2.2.110,13.02,7]docosa-2,4,6,10(22),12-pentaene-14,3′-cyclopentane]-1′-yl]methanesulfonamide] | 45 nM |  | 99%
4 | CS(=O)(=O)N[C@H]1CC[C@@]2(CO[C@H]3CC[C@H](CC3)c3ncccc3OCc3coc2n3)C1 [Example 66, N-[(1s,1′S,14R,17s)-spiro[8,12,16-trioxa-3,22-diazatetracyclo[15.2.2.110,13.02,7]docosa-2,4,6,10,13(22)-pentaene-14,3′-cyclopentane]-1′-yl]methanesulfonamide] | 81 nM |  | 94%
5 | CS(=O)(=O)N[C@H]1CC[C@@]2(COCCCc3cccc(c3)OCc3coc2n3)C1 [Example 67, N-[(1S,8S)-spiro[2,6,10-trioxa-19-azatricyclo[12.3.1.14,7]nonadeca-1(18),4,7(19),14,16-pentaene-8,3′-cyclopentane]-1′-yl]methanesulfonamide] | 1200 nM |  | 94%
6 | Cc1oc2nc1COc1ccccc1-c1cccc(c1)C[C@@]21CC[C@H](NS(C)(=O)=O)C1 [Example 68, N-[(1′S,14R)-11-methylspiro[8,12-dioxa-21-azatetracyclo[14.3.1.110,13.02,7]henicosa-1(19),2,4,6,10,13(21),16(20),17-octaene-14,3′-cyclopentane]-1′-yl]methanesulfonamide] | 1.5 nM |  | 98%
7 | CS(=O)(=O)N[C@H]1CC[C@@]2(Cc3ccc(F)c(c3)-c3cc(F)cc(F)c3OCc3coc2n3)C1 [Example 69, N-[(1′S,14R)-4,6,19-trifluorospiro[8,12-dioxa-21-azatetracyclo[14.3.1.110,13.02,7]henicosa-1(19),2,4,6,10,13(21),16(20),17-octaene-14,3′-cyclopentane]-1′-yl]methanesulfonamide] | 0.2 nM |  | 96%
8 | CS(=O)(=O)N[C@H]1CC[C@@]2(CO[C@H]3CC[C@H](CC3)c3cccc(c3)OCCc3coc2n3)C1 [Example 70, N-[(1s,1′S,14R,17s)-spiro[7,12,16-trioxa-22-azatetracyclo[15.2.2.12,6.110,13]tricosa-2,4,6(23),10,13(22)-pentaene-14,3′-cyclopentane]-1′-yl]methanesulfonamide] | 1.8 nM |  | 98%
9 | CS(=O)(=O)N[C@H]1CC[C@@]2(Cc3ccc(F)c(c3)-c3cccc(F)c3OCC3=NN=C2O3)C1 [Example 71, N-[(1′S,14R)-6,19-difluorospiro[8,21-dioxa-11,12-diazatetracyclo[14.3.1.110,13.02,7]henicosa-1(19),2(7),3,5,10,12,16(20),17-octaene-14,3′-cyclopentane]-1′-yl]methanesulfonamide] | 49 nM |  | 97%
10 | CS(=O)(=O)N[C@H]1CC[C@@]2(CO[C@H]3C[C@H](C3)c3ccccc3OCc3coc2n3)C1 [Example 72, N-[(1′S,10r,12s,15S)-spiro[3,13,17-trioxa-19-azatetracyclo[14.2.1.110,12.04,9]icosa-1(18),4,6,8,16(19)-pentaene-15,3′-cyclopentane]-1′-yl]methanesulfonamide] | 190 nM |  | 97%
11 | CS(=O)(=O)N[C@H]1CC[C@@]2(CO[C@H]3CC[C@H](CC3)c3cccc(c3)OCc3cnc2o3)C1 [Example 73, N-[(1s,1′S,13S,16s)-spiro[7,15,21-trioxa-11-azatetracyclo[14.2.2.12,6.19,12]docosa-2,4,6(22),9,11-pentaene-13,3′-cyclopentane]-1′-yl]methanesulfonamide] | 0.94 nM |  | 98%
12 | CS(=O)(=O)N[C@H]1CC[C@@]2(Cc3cccc(c3)-c3cccnc3NCc3coc2n3)C1 [Example 74, N-[(1′S,14R)-spiro[12-oxa-6,8,21-triazatetracyclo[14.3.1.110,13.02,7]henicosa-1(20),2,4,6,10,13(21),16,18-octaene-14,3′-cyclopentane]-1′-yl]methanesulfonamide] | 92 nM |  | 100%
13 | CS(=O)(=O)N[C@H]1CC[C@]2(CC1)Cc1cccc(c1)-c1cccc(F)c1OCc1coc2n1 [Example 75, N-(cis)-(6-fluorospiro[8,12-dioxa-21-azatetracyclo[14.3.1.110,13.02,7]henicosa-1(20),2,4,6,10,13(21),16,18-octaene-14,4′-cyclohexane]-1′-yl)methanesulfonamide] | 1.4 nM |  | 100%
14 | CS(=O)(=O)N[C@H]1CC[C@@]2(Cc3ccc(Cl)c(c3)-c3cc(F)cc(F)c3OCc3coc2n3)C1 [Example 76, N-[(1′S,14R)-19-chloro-4,6-difluoro-spiro[8,12-dioxa-21-azatetracyclo[14.3.1.110,13.02,7]henicosa-1(19),2,4,6,10,13(21),16(20),17-octaene-14,3′-cyclopentane]-1′-yl]methanesulfonamide] | 0.26 nM |  | 99%
15 | O=S(=O)(N[C@H]1CC[C@@]2(Cc3cccc(c3)-c3cccc(F)c3OCc3coc2n3)C1)C1CCOC1 (stereo partly drawn) [Example 79, N-[(1′S,14R)-6-fluorospiro[8,12-dioxa-21-azatetracyclo[14.3.1.110,13.02,7]henicosa-1(19),2,4,6,10,13(21),16(20),17-octaene-14,3′-cyclopentane]-1′-yl]tetrahydrofuran-3-sulfonamide] | 20 nM |  | 100%
16 | CS(=O)(=O)N[C@H]1CC[C@@]2(Cc3cccc(n3)-c3ccccc3OCc3coc2n3)C1 [Example 80, N-[(1′S,14S)-spiro[8,12-dioxa-20,21-diazatetracyclo[14.3.1.110,13.02,7]henicosa-1(20),2,4,6,10,13(21),16,18-octaene-14,3′-cyclopentane]-1′-yl]methanesulfonamide] | 9900 nM |  | 66%
17 | Cn1cc2c(n1)OCc1coc(n1)[C@]1(CC[C@H](NS(C)(=O)=O)C1)Cc1ccc(F)c-2c1 [Example 81, N-[(1′S,13R)-18-fluoro-4-methyl-spiro[7,11-dioxa-4,5,20-triazatetracyclo[13.3.1.19,12.02,6]icosa-1(18),2,5,9,12(20),15(19),16-heptaene-13,3′-cyclopentane]-1′-yl]methanesulfonamide] | 0.068 nM |  | 100%
18 | CS(=O)(=O)N[C@H]1CC[C@@]2(Cc3ccc(F)c(c3)-c3cccc(F)c3OCc3ccnc2n3)C1 [Example 82, N-[(1′S,15R)-6,20-difluorospiro[8-oxa-13,22-diazatetracyclo[15.3.1.110,14.02,7]docosa-1(20),2(7),3,5,10,12,14(22),17(21),18-nonaene-15,3′-cyclopentane]-1′-yl]methanesulfonamide] | 3.7 nM |  | 100%
19 | Cn1cc2c(n1)OCc1coc(n1)[C@]1(CC[C@H](NS(C)(=O)=O)C1)Cc1cc-2c(F)cc1F [Example 83, N-[(1′S,13R)-16,18-difluoro-4-methyl-spiro[7,11-dioxa-4,5,20-triazatetracyclo[13.3.1.19,12.02,6]icosa-1(18),2,5,9,12(20),15(19),16-heptaene-13,3′-cyclopentane]-1′-yl]methanesulfonamide] | 2.6 nM |  | 100%
20 | CCS(=O)(=O)N[C@H]1CC[C@@]2(Cc3cc(c(F)cc3F)-c3cccc(F)c3OCc3coc2n3)C1 [Example 84, N-[(1′S,14R)-6,17,19-trifluorospiro[8,12-dioxa-21-azatetracyclo[14.3.1.110,13.02,7]henicosa-1(19),2,4,6,10,13(21),16(20),17-octaene-14,3′-cyclopentane]-1′-yl]ethanesulfonamide] | 0.25 nM |  | 100%
